The source of these data is patent publication US20100093611A1, “COMPOUNDS AND METHODS FOR TREATING OR PREVENTING AUTOIMMUNE DISEASES” (priority 2007, published 2010).

For data set [1], the system named is IFN-α signaling pathway. Put plainly: High-Throughput Integrated Transcriptional Screening (HITS), qPCR of IFN-α signature gene set in THP-1 cells. The class given is cell-based, human. The following applies: compound 10 μM, 100 IU/ml IFN-α 4 h, a gene inhibited by more than 50% gets its maximum score, scores added, hit if greater than 50% of maximum. How it is done:
The unique gene expression signature of the IFN-α signaling pathway was established in THP-1 cells by comparing the gene profiles of the fully activated IFNα pathway to the basal gene expression. THP-1 cells were stimulated either with 100 IU/ml IFN-α, 100 IU/ml IFN-γ, or 10 ng/ml TNF-α to generate the activated pathway gene signatures.
In one embodiment, the compounds of Table 1 were used to identify different mechanisms of action as identified from primary screening. If a gene is inhibited by more than 50% then it receives its maximum score (all or none type of scoring).
THP-1 cells seeded at 8×10^5 cells/ml were treated with either compound (10 μM final concentration) or vehicle control (0.1% DMSO) for 30 minutes prior to a four hour stimulation with 100 IU/ml IFN-α or PBS. Plates were incubated at 37° C. in a humidified incubator. Cell lysis and RNA isolation were carried out according to the manufacturer's instructions (TurboCapture mRNA Kit, Qiagen Inc.). PCR primer pairs were designed for each of the genes identified through the global gene expression analysis using Primer 3 based method (see below for primer sequences). Each primer was evaluated for the efficient production of a single band of appropriate size in the presence of template RNA and the lack of distinct amplification products in a non-template control. Real time PCR reactions were carried out in SYBR green master mix (Quanta biosciences) on ABI9700 thermocyclers.
We used the house keeping gene, GAPDH, as the normalization control for the IFN-α gene signature set to correct the overall variability in the qPCR based HITS process. The corrected profiles were then normalized to the basal gene expression levels determined by using the vehicle only treatments. We subtracted the vehicle only control gene value from the test compound gene profiles, gene per gene (see FIG. 1).

For data set [2], the system named is SLE-associated gene signature as induced by SLE serum. Description: SLE serum-induced IFN-α gene signature in freshly isolated monocytes (HITS qPCR). It counts as cell-based, human. The following applies: for Percentage inhibition of the six most robustly induced IFN-α signature genes induced by SLE serum: 1 μm, monocytes stimulated with 50% SLE patient serum, mean of six genes vs vehicle control; for Upregulation of the six most robustly induced IFN-α signature gene set by 50% lupus serum (in words): freshly isolated monocytes, dose dependent (FIG. 4). From the text: RNA from lysed cells was examined by qPCR analysis in HITS assay. […] Each bar represents the average+/−SEM of three independent experiments using serum from different SLE patients.
Stimulation of healthy donor PBMCs with serum isolated from SLE patients induces the up-regulation of IFN-α pathway-associated genes (Interfon-induced genes, IFIGs), such as MX1^31. Furthermore, expression of IFIG correlates with disease severity and organ involvement^31, 32. To further evaluate the role of small molecular inhibitors on the type I IFN gene signature, freshly isolated monocytes stimulated with 50% lupus serum were used in HITS assays. […] Importantly, these experiments were performed with SLE serum from patients with well characterized biochemical profiles.
SLE patient and control serum were purchased from Bioreclamation (Hicksville, N.Y.). IFN-α 2a was obtained from PBL Biomedical laboratories (Piscataway, N.J.). Fresh PBMCs from healthy donor were prepared by Ficoll-hypaque fraction according to the manufactory's instruction. Cells were cultured at 2×10^5 cells/0.1 ml in 96-well flat-bottomed plates in culture medium.
To determine the effect of compounds on gene expression, compounds and vehicle controls were pre-incubated with cells for 30 min at 37° C. before stimulation with 50% lupus serum or 100 IU/ml IFN-α 2a were incubated with PBMC. After 6 h stimulation, cells were lysed in Qiagen 2XTCL lysis buffer followed by HITS analysis (see FIG. 2).
In general terms: Real-time PCR tracks product formation cycle by cycle.

Data set [3] deals with CD80, CD123 and CD38 cell surface expression on monocytes. Description: IFN-α induced primary human monocyte activation/differentiation, cell surface markers by FACS. The class given is cell-based. The settings on record: 500 IU/ml IFN-α, 48 h, FACS (FIG. 5). How it is done: Freshly isolated monocytes from healthy donor were pre-incubated with compounds or vehicle control for 0.5 hour before stimulation with 500 IU/ml IFN-α. Cell surface expression of CD80, CD123 and CD38 was evaluated by FACS 48 h post-stimulation. Each bar represents the average+/−SEM of three independent experiments.
Since deregulated differentiation of DCs induced by IFN-α may be a critical contributing factor in SLE^13, the impact of Apicidin 1a, IKK2 inhibitor IV, and JAK inhibitors in DC differentiation was examined. Human monocytes were stimulated with IFN-α and the expression of CD38 CD80 and CD123 differentiation markers was monitored^33.
(§1) For monocyte differentiation assays, human monocytes were isolated from the blood of healthy donors according to manufactory's instructions (Miltenyi Biotec Inc; Auburn Calif.). 5×10^5 freshly prepared monocytes were pre-incubated with compounds or vehicle control for 30 min. Cells were then incubated in RPMI 1640 medium (Invitrogen, Carlsbad, Calif.) including 10% fetal calf serum (Invitrogen) supplemented with 500 IU/ml IFN-α 2a for 48 hr. Cell surface protein were stained with FITC-labeled anti-CD80, PE-labeled anti-CD123, PEcy7 labeled anti-CD38, APC cy7 labeled MHC class II (all BD, San Jose, Calif.) and analyzed on a FACS Calibur flow cytometer (BD). Cytokine and chemokine levels in supernatants from monocyte differentiation assays were measured using searchlight human cytokine array (Pierce Inc, Woburn, Mass.). (see FIG. 5)

Data set [4] concerns IP-10. Put plainly: IFN-α induced IP-10 secretion from human monocytes. The settings on record: 500 IU/ml IFN-α, 48 h (FIG. 6A). It counts as cell-based. How it is done:
(§2) Freshly isolated monocytes were treated with 500 IU/ml IFN-α with or without indicated compounds for 48 h. Supernatants were collected and MCP-1 and IP-10 levels were analyzed by Searchlight Inc. Percentage inhibition represents inhibition of the upregulation of chemokine induced by IFN-α compared to the vehicle control. Panel A: Effect of compounds on IP-10 secretion. Panel B: Effect of compounds on MCP-1 secretion. Each bar represents the average+/−SEM of three independent experiments. Panel C: IKK2 inhibitor IV blocked IFN-α induced IP-10 protein level in vivo. Female NZBW/F1 mice were treated with either antibody (i.p. injection 30 mg/kg) or IKK2 inhibitor (45 mg/kg BID) as described in materials and methods. Adenovirus-IFN-a (1×10^10 viral particles) was administrated i.v. at time 0. Samples were collected 6 h post-stimulation, IP-10 protein level was measured by ELISA. Data representative of two experiments.
(§3) Multiple chemokines, including monocyte chemo-attractant protein-1 (MCP-1) and activated T cell chemokine interferon inducible protein 10 (IP-10) regulate leukocytes migration and infiltration into inflammated organs^34. Expression of MCP-1 and IP-10 are elevated in serum of SLE patients^34, 35 and in monocytes of healthy donors stimulated in vitro by IFN-α^36. Consequently, the effect of Apicidin 1a, IKK2 inhibitor IV, and JAK inhibitors in IP-10 and MCP-1 expression induced by IFN-α from human monocytes was examined.
as §1, with “Cells were then incubated in RPMI 1640 medium (Invitrogen, Carlsbad, Calif.) including 10% fetal calf serum (Invitrogen) supplemented with 500 IU/ml IFN-α 2a for 48 hr.” left out, “(see FIG. 5)” left out

Data set [5] relates to MCP-1. Description: IFN-α induced MCP-1 secretion from human monocytes. The class given is cell-based. The following applies: 500 IU/ml IFN-α, 48 h (FIG. 6B). How it is done: as §2, §3
as §1, with “Cells were then incubated in RPMI 1640 medium (Invitrogen, Carlsbad, Calif.) including 10% fetal calf serum (Invitrogen) supplemented with 500 IU/ml IFN-α 2a for 48 hr.” left out, “(see FIG. 5)” left out

Data set [6] concerns freshly isolated monocytes. Description: Cytotoxicity at the concentration used in the SLE serum monocyte assay. It counts as cell-based, human. The following applies: 1 μm.

Take `CCC(=O)CCCCC[C@@H]1NC(=O)[C@H]2CCCCN2C(=O)C([C@@H](C)CC)NC(=O)[C@H](Cc2cn(OC)c3ccccc23)NC1=O` (stereo partly drawn) [Compound 2, Apicidin]: the “HTS Score” value in data set [1] amounted to 0.89. In data set [2], the “Percentage inhibition of the six most robustly induced IFN-α signature genes induced by SLE serum” value was 80% and the “Upregulation of the six most robustly induced IFN-α signature gene set by 50% lupus serum (in words)” value is listed as “blocked the upregulation”. In data set [3], the CD38 expression result is “limited to the highest dose of 1 μM”, the CD80 expression entry was “blocks CD80 expression” and the CD123 expression result was “limited to the highest dose of 1 μM”. The “Expression of IP-10 induced by IFN-α” value in data set [4] was “no neutralization”. The “MCP-1 expression induced by IFN-α” value in data set [5] is “totally neutralizes MCP-1 expression”. The Cytotoxicity entry in data set [6] is reported as “did not exhibit cytotoxicity”.

Consider `NC(=O)Nc1sc(-c2ccc(F)cc2)cc1C(N)=O` [Compound 5, IKK-2 Inhibitor IV], for which the “HTS Score” value in data set [1] was 0.95. In data set [2], the “Percentage inhibition of the six most robustly induced IFN-α signature genes induced by SLE serum” value was determined as 77% and the “Upregulation of the six most robustly induced IFN-α signature gene set by 50% lupus serum (in words)” value is on record as “blocked the upregulation”. Also, in data set [3], the CD38 expression result is listed as “dose-dependent inhibition”, the CD80 expression entry is on record as “dose-dependent inhibition” and the CD123 expression entry was “dose-dependent inhibition”. Moreover, the “Expression of IP-10 induced by IFN-α” value in data set [4] is listed as “block the expression of IP-10”. Besides, in data set [5], the “MCP-1 expression induced by IFN-α” value is “restricted to the highest dose”. In addition, in data set [6], the Cytotoxicity result is recorded as “did not exhibit cytotoxicity”.
